Test system: tumor-bearing animal models
Experiment: Planar images of tumor-bearing animal models
Assay type: in vivo
Details: tumor-bearing animal models (FIGS. 5-7, 9, 10)
Method: Imaging studies were performed 12 to 15 days after inoculation. Tumor sizes of approximately 1-1.5 cm were measured. Scintigraphic images were obtained using an M-camera from Siemens Medical Systems (Hoffman Estates, Ill.). The camera was equipped with a low-energy parallel-hole collimator.
Planar scintigraphy was obtained at immediate, 0.5-4 hrs after i.v. injection of ^99mTc—N4-DG, or ^99mTc—N4 (0.3 mCi/rat; 0.1 mg mass/rabbit). To compare the radiotracer accumulation, ROIs (region of interest in counts per pixel) were determined. The ROIs count between tumor and muscle was used to calculate tumor-to-nontumor ratios.

Q: CC(N)(Cc1ccc(OCCCN2CCCNCCNCCCNCC2)cc1)C(=O)O (stereo not shown) [Example N4-AMT] was tested. Which “tumor visualization on planar images” value did it give?
A: visualized clearly
